From patent publication US20110207689A1, “THE TREATMENT OF HEARING LOSS” (Auckland UniServices Limited, priority 2008, published 2011)
Counter-ions that a name gives are not always drawn.

Experiments:
[1] = system: rats exposed to broad band noise for 24 hours at 110 dBSPL; assay: ABR after broad band noise, adenosine receptor agonists delivered onto the round window membrane (Experiment 3); format: in vivo, Wistar rats; settings: for post-treatment ABR thresholds for clicks and pure tones: 48 hours after administration to the RWM, CGS-21680 200 μM; for post-treatment ABR thresholds for clicks and pure tones / ABR threshold recovery for clicks: adenosine 10 mM; for post-treatment ABR thresholds for clicks and pure tones / ABR threshold recovery for pure tones (up to) / ABR threshold recovery for clicks: CCPA 1 mM; for ABR threshold recovery for pure tones (up to) / ABR threshold recovery for clicks: single dose onto RWM 6 hours after noise, ABR 48 hours after treatment; for ABR threshold recovery for pure tones (up to): adenosine 10 mM (16 kHz)
Procedure: ABRs were measured in response to auditory clicks (a) and pure tones (b-e) before noise exposure (baseline), 30 minutes after noise exposure (pre-treatment) and 48 hours after administration of adenosine receptor agonists (post-treatment). All drugs were delivered onto the cochlear round window membrane (f) Threshold recovery is defined as ABR post-treatment minus ABR pre-treatment. Data are expressed as means±SEM (n=8). *p<0.05; **p<0.01; ***p<0.001; one way ANOVA with Tukey's multiple comparison test. AP, artificial perilymph (control); adenosine (10 mM), non-selective adenosine receptor agonist; CCPA (1 mM), selective A1 adenosine receptor agonist; CGS-21680 (0.2 mM), selective A2A receptor agonist.
Rats were exposed to a broadband noise presented for 24 hours at 90, 100, or 110 dBSPL. Noise exposures were carried out in a custom-built acoustic chamber (Shelburg Acoustics, Sydney, Australia) with internal speakers and external controls (sound generator and frequency selector). The sound levels in the cage were measured using a calibrated Rion NL-49 sound level meter to ensure minimal deviations of sound intensity. The animals had free access to food and water during the exposure.
Auditory thresholds in noise-exposed animals were measured using auditory brainstem responses (ABR), which represent the sound evoked potentials from the auditory nerve and brainstem auditory nuclei. ABR measurements were recorded at least 24 hours prior to noise exposure (baseline) and then 30 min after noise exposure (pre-treatment). Adenosine receptor agonists or vehicle control were then delivered to the cochlear round window (around 6 hours post-noise) and ABR measurement was then repeated 48 hours after drug administration (post-treatment). ABR measurements were performed in a sound attenuator chamber (Shelburg Acoustics, Sydney, Australia). The rats were anesthetized with ketamine (75 mg/kg) and xylazine (10 mg/kg) and their body temperature was maintained at 38° C. with a heating pad as described. ABRs were obtained by placing fine platinum electrodes subdermally at the mastoid region of the ear of interest (active electrode), scalp vertex (reference) and mastoid region of the opposite ear (ground electrode). A series of auditory clicks or pure tones (4-28 kHz) presented at varying intensity and thresholds generated electrical activity reflecting differing levels of auditory processing. The sound threshold of the ABR complex (waves I-IV) were determined by progressively attenuating the sound intensity until the waveform was no longer observed. The acoustic stimuli for ABR were produced, and the responses, recorded, using a Tucker-Davis Technologies auditory physiology workstation (Alachua, Fla., USA) controlled by computer-based digital signal processing package and software (BioSig, Alachua, Fla., USA). ABR potentials were evoked with digitally produced 5 ms tone pips (0.5 ms rise-fall time) at frequencies between 4 and 28 kHz in half-octave steps. Sound pressure level (SPL) was raised in 5 dB steps starting from 10 dB below threshold level to 90 dB SPL. Responses were averaged at each sound level (1024 repeats with stimulus polarity alternated), and response waveforms were discarded when peak-to-peak amplitude exceeded 15 μV (artefact reject). The ABR threshold was defined as the lowest intensity (to the nearest 5 dB) at which a response could be visually detected above the noise floor. The animals were euthanised after hearing assessment and the cochleae collected for immunohistochemical assessment of free radical damage.
Six hours after exposure to broad band noise (110 dBSPL for 24 hours), adenosine receptor agonists were delivered to the round window membrane (RWM) in the left cochlea, whilst the contralateral ear served as untreated control. […]

[2] = system: inner hair cell receptor potential; assay: Summating potential (SP) thresholds during cochlear perfusion, ambient noise levels; format: in vivo, Wistar rats; settings: for effect on SP thresholds: RWM perfusion 90 minutes, adenosine 10 mM, CCPA 1 mM, rats at ambient noise
Procedure: SP thresholds, representing the inner hair cell receptor potential, were measured at frequencies ranging from 4-26 kHz prior to perfusion of artificial perilymph (AP; baseline), after AP perfusion and after perfusion with adenosine receptor agonists adenosine and CCPA. Data presented as mean±SEM (n=8). *p<0.05 **p<0.01, one way ANOVA with Tukey's multiple comparison test. AP, artificial perilymph (control); adenosine (10 mM), non-selective adenosine receptor agonist; CCPA (1 mM), selective A1 adenosine receptor agonist; CGS-21680 (0.2 mM), selective A2A receptor agonist; SCH-58261, selective A2A receptor antagonist.
(§1) As a foundation for the noise studies and to determine the general effect of selective adenosine receptor agonists on the cochlea, auditory function was first evaluated in control animals using the summating potential (SP; measure of the inner hair cell receptor potential) and the compound action potential (CAP; measure of the neural afferent output). This was undertaken to determine the background influence of adenosine receptor activation in the normal cochlea as a platform for the studies in noise-exposed animals.
Animals were anaesthetized (sodium pentobarbital; 60 mg/kg i.p.) and placed on a thermostatically regulated blanket connected to a remote homeothermal control unit (Harvard Apparatus, Holliston, Mass., USA) to maintain stable body temperature (37.5° C.) via a rectal thermocouple probe (Harvard Apparatus). The head of the animal was placed on a heated (38° C. surface temperature) stereotaxic head-holder, connected to a heat block temperature controller (Bio-Medical Engineering Services, University of Auckland, New Zealand). The animals were artificially ventilated and the auditory bulla was exposed using a ventrolateral approach. The perfusion line was inserted close to the round window membrane (RWM). The RWM was perfused with test solutions containing A1, or A2A adenosine receptor agonists at […] using a Harvard Apparatus Series PHD 22/2000 syringe pump. Adenosine receptor agonists adenosine (10 mM), CCPA (1 mM), CGS-21680 (200 μM), alone or in combination with adenosine receptor antagonist SCH-58261 (200 μM), were perfused for 90 minutes. Sound-evoked cochlear responses (CAP and SP) to pure tone stimuli (4-28 kHz) were recorded from a silver wire electrode placed onto the cochlear round window. These responses were measured using a Tucker-Davis System II for the presentation of tone stimuli and acquisition of the electrical potentials via a Grass P16 Pre-amplifier.

[3] = system: nitrotyrosine immunoreactivity in the noise-exposed cochlea; assay: Nitrotyrosine immunohistochemistry, semi-quantitative, noise-exposed cochleae treated topically (Experiment 3); format: in vivo, Wistar rats; settings: middle turn, adenosine 10 mM or CCPA 1 mM onto RWM, p<0.01
Source text: No immunostaining was detected when the nitrotyrosine antibody was omitted. (B). Semi-quantitative analysis of nitrotyrosine immunoreactivity. Abbreviations: cc, Claudius cells; dc, Deiters' cells; hc, Hensen's cells; idc, interdental cells; is, inner sulcus cells; ihc, inner hair cells; ohc, outer hair cells; opc, outer pillar cells. Scale bars: 50 μm. Data are expressed as means±SEM (n=4 animals per group). **p<0.01; ***p<0.001; one way ANOVA with Tukey's multiple comparison test.
Nitrotyrosine formation in the noise-exposed cochlea was assessed by immunohistochemistry. […] Immunoperoxidase reaction was detected using a secondary biotin-conjugated goat anti-rabbit IgG, followed by reaction visualisation using an avidin-biotin-peroxidase complex (ABC kit, Vector Laboratories) and diaminobenzidine (DAB kit, Vector). […] Images were analyzed using identical acquisition parameters and immunolabeling was semi-quantified using ImageJ software (v.1.38x, NIH, USA). […] Regions of interest were selected and their immunostaining intensity histograms obtained and expressed as mean pixel intensity after greyscale conversion. Between 15 and 32 images of the middle cochlear turn were analyzed in each group (n=4 animals per group) in a double-blind manner.

[4] = system: neural afferent output of the cochlea; assay: Compound action potential (CAP) thresholds during cochlear perfusion, ambient noise levels; format: in vivo, Wistar rats; settings: RWM perfusion; data not shown
Source text: as §1
Animals were anaesthetized (sodium pentobarbital; 60 mg/kg i.p.) and placed on a thermostatically regulated blanket connected to a remote homeothermal control unit (Harvard Apparatus, Holliston, Mass., USA) to maintain stable body temperature (37.5° C.) via a rectal thermocouple probe (Harvard Apparatus). The head of the animal was placed on a heated (38° C. surface temperature) stereotaxic head-holder, connected to a heat block temperature controller (Bio-Medical Engineering Services, University of Auckland, New Zealand). […] Sound-evoked cochlear responses (CAP and SP) to pure tone stimuli (4-28 kHz) were recorded from a silver wire electrode placed onto the cochlear round window. These responses were measured using a Tucker-Davis System II for the presentation of tone stimuli and acquisition of the electrical potentials via a Grass P16 Pre-amplifier.

noise-exposed cochlea = settings: pre-treatment (prophylactic), reference [6], cited from earlier work

Compound	post-treatment ABR thresholds for clicks and pure tones [1]	ABR threshold recovery for pure tones (up to) [1]	ABR threshold recovery for clicks [1] [dB]	effect on SP thresholds [2]	reduction of nitrotyrosine mean pixel intensity compared to AP control [3]	further results
OC[C@H]1O[C@@H](n2cnc3c(NC4CCCC4)nc(Cl)nc32)[C@H](O)[C@@H]1O [CCPA, 2-Chloro-N^6-cyclopentyladenosine]	markedly improved ABR thresholds	up to 20 dB	20	did not affect SP thresholds	22-45%	
CCNC(=O)[C@H]1O[C@@H](n2cnc3c(N)nc(NCCc4ccc(CCC(=O)O)cc4)nc32)[C@H](O)[C@@H]1O [CGS-21680, 2-p-(2-Carboxyethyl)phenethylamino-5′-N-ethylcarboxamidoadenosine hydrochloride hydrate]	remained unchanged					threshold recovery ([1]; CGS-21680 200 μM onto RWM 6 hours after noise, FIG. 11(f)): did not affect threshold recovery; reduction of SP thresholds ([2]; at 16 kHz, CGS-21680 200 μM RWM perfusion, p<0.01): 5 dB
Nc1ncnc2c1ncn2[C@@H]1O[C@H](CO)[C@@H](O)[C@H]1O [adenosine]	markedly improved ABR thresholds	up to 19 dB	18	did not affect SP thresholds	30-42%	effect on CAP thresholds [4]: not altered
C[C@H](Cc1ccccc1)Nc1ncnc2c1ncn2[C@@H]1O[C@H](CO)[C@@H](O)[C@H]1O [R-PIA, R—N6-phenylisopropyladenosine]						survival of the outer hair cells (noise-exposed cochlea): increased survival of the outer hair cells; preservation of auditory thresholds (noise-exposed cochlea; topical to RWM): better preservation of auditory thresholds
Nc1nc2c(cnn2CCc2ccccc2)c2nc(-c3ccco3)nn12 [SCH-58261, 7-(2-phenylethyl)-5-amino-2-(2-furyl)-pyrazolo-[4,3-e]-1,2,4-triazolo[1,5-c]pyrimidine]						effect on the CGS-21680 reduction of SP thresholds ([2]; SCH-58261 200 μM in combination with CGS-21680): inhibited
